Test system: Ninety four (94) cell lines and PBMC
Assay: Cell viability assay, SRB staining, 94 cell lines and PBMC (Example 7, Experiment 2)
Assay type: cell-based
Procedure: Ninety four (94) cell lines were seeded at a density varying from 500 to 7000 cells/well depending on their growth characteristics. PBMC were seeded at the density 50,000-100,000 cells/well. Cells were incubated for 48 h prior to compound treatment. Compound 1 and DON were evaluated at a concertation range of 1 nM up to 100 μM. Compound 1 dilutions in DMSO and DON dilutions in PBS were performed in 96-well 0.5 mL plates (Greiner Bio-One, Germany). Compounds were then diluted 1:100 in RPMI medium. […] of cells were treated by mixing with 10 μL of the compound-containing media (resulting in a final DMSO concentration of 0.1%). The cells were allowed to grow at 37° C. for 120 h. Cells were fixed to the surface by addition of 10% TCA (for adherent growing cells) or 50% TCA (for semi-adherent growing cells or cells growing in suspension). After an hour of incubation at 4° C., plates were washed twice with 400 μL of deionized water and dried. Cells were then stained with 100 μL of 0.04% wt/v SRB. The plates were incubated at room temperature for at least 30 min and washed six times with 1% acetic acid to remove unbound stain. The plates were left to dry at room temperature and bound SRB was solubilized with 100 μL of 10 mM Tris base. Optical density was measured at 492, 520 and 560 nm using a Deelux-LED96 plate reader (Deelux Labortechnik GmbH, Germany).
Cell lines were purchased directly from the ATCC, NCI, CLS, and DSMZ cell line collections. A master bank and working aliquots were prepared. Cells used for the study had undergone less than 20 passages. To rule out potential contamination or wrong assignment, all cell lines were tested by STR analysis. Absence of mycoplasma contamination was confirmed for all cell lines used in the studies.
The cell lines were grown in the media recommended by the suppliers in the presence of 100 U/mL penicillin and 100 μg/mL streptomycin supplied with 10% FCS (PAA, Germany). RPMI 1640, DMEM, and MEM Earle's medium were from PAA (Coelbe, Germany), supplements 2 mM L-glutamine, 1 mM Na-pyruvate and 1% NEAA were from PAA (Coelbe, Germany), 2.5% horse serum, hydrocortisone, transferin, beta-estradiol, selenite and 1 U/mL insulin from Sigma-Aldrich (Munich, Germany). RPMI medium was used for culturing the following cell lines: 5637, 22RV1, 7860, A2780, A431, A549, ACHN, ASPC1, BT20, BXPC3, CAKI1, CLS439, COLO205, COLO678, DLD1, DU145, EFO21, EJ28, HCT15, HS578T, IGROV1, JAR, LOVO, MCF7, MDA MB231, MDA MB435, MDA MB436, MDA MB468, MHHES1, MT3, NCI H292, NCI H358M, NCI H460, NCIH82, OVCAR3, OVCAR4, PANC 1005 (addition of insulin), PBMC, PC3, RDES, SF268, SF295, SKBR3, SK MEL28, SKMEL5, SKOV3, SW620, U2OS, UMUC3, and U031.
DMEM medium was used to culture A204, A375, A673, C33A, CASKI, HCT116, HEPG2, HS729, HT29, J82, MG63, MIAPACA2 (addition of horse serum), PANC1, PLCPRF5, RD, SAOS2, SKLMS1, SKNAS, SNB75, T24, and TE671.
MEM Earle's medium was used for CACO2, CALU6, HEK293, HELA, HT1080, IMR90, JEG3, JIMT1, SKHEP1, SKNSH, and U87MG. Cell seeding conditions were optimized for each cell line. The cell seeding density varied from 500 to 7000 cells/well depending on their growth characteristics. Peripheral blood mononuclear cells (PBMC) were freshly isolated from whole blood of an anonymous donor through density gradient centrifugation using Ficoll solution (d=1.077). In short, blood was diluted 1:1 with PBS and carefully placed on the Ficoll. After centrifugation 1000×g for 15 min (braking rate 0), the ring containing mainly leucocytes was collected in PBS followed by three times washing with PBS to reduce the platelets. PBMC were seeded at the density 50,000-100,000 cells/well. Cells were grown in 5% CO2 atmosphere in a NB-203XXL incubator (N-BIOTEK Inc., Korea).
Ninety-four cell lines were tested in parallel. Cell growth and treatment were performed in 96 well microtitre plates CELLSTAR® (Greiner Bio-One, Germany). […]

[1] = Homo sapiens, 22Rv1, 22RV1, prostate
[2] = Homo sapiens, 786-0, 786O, kidney
[3] = Homo sapiens, A204, A204, muscle
[4] = Homo sapiens, A673, A673, muscle
[5] = Homo sapiens, A2780, A2780, ovary
[6] = Homo sapiens, A-375, A375, skin
[7] = Homo sapiens, A-431, A431, skin
[8] = Homo sapiens, ASPC1, ASPC1, pancreas
[9] = Homo sapiens, BT-20, BT20, breast
[10] = Homo sapiens, C-33-A, C33A, endometrial
[11] = Homo sapiens, CAKI-1, CAKI1, kidney
[12] = Homo sapiens, COLO 205, COLO205, colon
[13] = Homo sapiens, Ca-Ski, CASKI, endometrial
[14] = Homo sapiens, Caco-2, CACO2, colon
[15] = Homo sapiens, Calu-6, CALU6, lung
[16] = Homo sapiens, DLD-1, DLD1, colon
[17] = Homo sapiens, DU-145, DU145, prostate
[18] = Homo sapiens, EFO-21, EFO21, ovary
[19] = Homo sapiens, EJ-28, EJ28, bladder
[20] = Homo sapiens, Granta-519, GRANTA-519, hematological
[21] = Homo sapiens, HCT-15, HCT15, colon
[22] = Homo sapiens, HCT-116, HCT116, colon
[23] = Homo sapiens, HEK293, HEK293, kidney
[24] = Homo sapiens, HL-60, HL-60, hematological
[25] = Homo sapiens, HT-29, HT29, colon
[26] = Homo sapiens, HT-1080, HT1080, connective tissue
[27] = Homo sapiens, HeLa, endometrial
[28] = Homo sapiens, HepG2, HEPG2, liver
[29] = Homo sapiens, IGROV-1, IGROV1, ovary
[30] = Homo sapiens, JEG-3, JEG3, placenta
[31] = Homo sapiens, JIMT-1, JIMT1, breast
[32] = Homo sapiens, K562, K-562, hematological
[33] = Homo sapiens, Kasumi 1, KASUMI-1, hematological
[34] = Homo sapiens, L-363, L-363, hematological
[35] = Homo sapiens, MCF7, MCF7, breast
[36] = Homo sapiens, MDA-MB-231, MDAMB231, breast
[37] = Homo sapiens, MDA-MB-435, MDAMB435, skin
[38] = Homo sapiens, MDA-MB-436, MDAMB436, breast

SMILES: CC(=O)N[C@@H](Cc1c[nH]c2ccccc12)C(=O)N[C@@H](CCC(=O)C=[N+]=[N-])C(=O)OC(C)C [Compound 1, Isopropyl (S)-2-((S)-2-acetamido-3-(1H-indol-3-yl)propanamido)-6-diazo-5-oxohexanoate]
- IC50 (5637, bladder): 2.43 µM
- IC50 (CLS439, bladder): 8.43 µM
- GI50 [1]: 1.02 µM
- IC50 [1]: 1.1 µM
- GI50 [2]: 3.34 µM
- IC50 [2]: 3.84 µM
- GI50 [3]: 2.65 µM
- IC50 [3]: 20.3 µM
- GI50 (Homo sapiens, A549, A549, lung): 9.04 µM
- IC50 (Homo sapiens, A549, A549, lung): 9.28 µM
- GI50 [4]: 3.49 µM
- IC50 [4]: 3.87 µM
- GI50 [5]: 3.04 µM
- IC50 [5]: 3.28 µM
- GI50 [6]: 4.13 µM
- IC50 [6]: 4.39 µM
- GI50 [7]: 14.2 µM
- IC50 [7]: 18.4 µM
- GI50 (Homo sapiens, ACHN, kidney): 7.88 µM
- IC50 (Homo sapiens, ACHN, kidney): 8.98 µM
- GI50 [8]: 5.96 µM
- IC50 [8]: 8.36 µM
- GI50 [9]: 20 µM
- IC50 [9]: 53.1 µM
- GI50 (Homo sapiens, BXPC-3, BXPC3, pancreas): 4.24 µM
- GI50 [10]: 7.46 µM
- IC50 [10]: 7.69 µM
- GI50 [11]: 5.3 µM
- IC50 [11]: 6.84 µM
- GI50 [12]: 2.73 µM
- IC50 [12]: 4.66 µM
- GI50 (Homo sapiens, COLO-678, COLO678, colon): 93 µM
- GI50 [13]: 5.9 µM
- IC50 [13]: 7.83 µM
- GI50 [14]: 19.4 µM
- IC50 [14]: 28.2 µM
- GI50 [15]: 5.88 µM
- IC50 [15]: 7.07 µM
- GI50 [16]: 9.25 µM
- IC50 [16]: 9.59 µM
- GI50 [17]: 8.82 µM
- IC50 [17]: 10.9 µM
- GI50 [18]: 6.86 µM
- IC50 [18]: 14.1 µM
- GI50 [19]: 5.82 µM
- IC50 [19]: 6.55 µM
- GI50 [20]: 0.687 µM
- IC50 [20]: 0.768 µM
- GI50 [21]: 20.1 µM
- IC50 [21]: 21.7 µM
- GI50 [22]: 1.31 µM
- IC50 [22]: 1.33 µM
- GI50 [23]: 9.21 µM
- IC50 [23]: 10.4 µM
- GI50 [24]: 1.09 µM
- IC50 [24]: 1.1 µM
- GI50 [25]: 0.88 µM
- IC50 [25]: 1.07 µM
- GI50 [26]: 2.61 µM
- IC50 [26]: 3.04 µM
- GI50 [27]: 11.8 µM
- IC50 [27]: 13.4 µM
- GI50 [28]: 7.87 µM
- IC50 [28]: 9.85 µM
- GI50 (Homo sapiens, Hs-578T, HS578T, breast): 36.4 µM
- GI50 [29]: 8.98 µM
- IC50 [29]: 10.7 µM
- GI50 (Homo sapiens, IMR-90, IMR90, lung): 14.6 µM
- GI50 [30]: 3.87 µM
- IC50 [30]: 4.78 µM
- GI50 [31]: 19.4 µM
- IC50 [31]: 40.6 µM
- GI50 [32]: 1.15 µM
- IC50 [32]: 1.2 µM
- GI50 [33]: 3.17 µM
- IC50 [33]: 7.95 µM
- GI50 [34]: 0.546 µM
- IC50 [34]: 0.717 µM
- GI50 (Homo sapiens, LoVo, colon): 5.16 µM
- IC50 (Homo sapiens, LoVo, colon): 5.55 µM
- GI50 [35]: 4.13 µM
- IC50 [35]: 8.59 µM
- GI50 [36]: 11.6 µM
- IC50 [36]: 14.6 µM
- GI50 [37]: 14.7 µM
- IC50 [37]: 15.2 µM
- GI50 [38]: 49.3 µM
- IC50 [38]: 131 µM

From patent US20220117938A1, “COMBINATON THERAPY WITH A DON PRODRUG AND AN IMMUNE CHECKPOINT INHIBITOR” (DRACEN PHARMACEUTICALS, INC., priority 2019, published 2022)
